Measured values taken from the supplement of paper PMC8612539.
In brackets after ≈: the same amount, converted by molar mass.

Legend:
Mannheimia haemolytica = assay: minimum inhibitory concentration (MIC)
Procedure: (§1)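 Broth microdilution MIC (Sensititre BOPO7F bovine plate, CLSI methods) of 19 antimicrobials against field isolates of P. multocida, M. haemolytica, H. somni (deep nasopharyngeal swabs) and E. coli, Enterococcus spp. (rectal swabs) from weaned dairy heifers. Incubation 16-24 h at 35 C. MIC is the lowest concentration preventing visible growth. Values with <= or > lie at the tested range limits. Trimethoprim-sulfamethoxazole is given as the trimethoprim component of a 1:19 mixture.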

Enterococcus spp. = assay: minimum inhibitory concentration (MIC)
Procedure: as §1

NC[C@@H]1O[C@H](O[C@H]2[C@@H](O)[C@H](O[C@@H]3[C@@H](O)[C@H](N)C[C@H](N)[C@H]3O[C@H]3O[C@H](CN)[C@@H](O)[C@H](O)[C@H]3N)O[C@@H]2CO)[C@H](N)[C@@H](O)[C@@H]1O [Neomycin]
minimum inhibitory concentration [µg/mL]
Conditions	Enterococcus spp.	Mannheimia haemolytica
isolate (source animal id): 2	≤ 4	–
isolate (source animal id): 8	–	> 32
isolate (source animal id): 13	–	> 32
isolate (source animal id): 18	–	> 32
isolate (source animal id): 21	–	> 32
isolate (source animal id): 25	–	> 32
isolate (source animal id): 27	–	> 32
isolate (source animal id): 28	–	8 (≈ 13 µM)
isolate (source animal id): 30	–	> 32
isolate (source animal id): 31	–	16 (≈ 26 µM)
isolate (source animal id): 32	–	> 32
isolate (source animal id): 34	–	> 32
isolate (source animal id): 35	> 32	–
isolate (source animal id): 36	–	> 32
isolate (source animal id): 37	–	> 32
isolate (source animal id): 40	–	> 32
isolate (source animal id): 41	–	> 32
isolate (source animal id): 42	> 32	–
isolate (source animal id): 43	–	> 32
isolate (source animal id): 44	> 32	–
isolate (source animal id): 46	–	> 32
isolate (source animal id): 49	–	> 32
isolate (source animal id): 50	–	> 32
isolate (source animal id): 51	–	> 32
isolate (source animal id): 52	–	> 32
isolate (source animal id): 53	–	> 32
isolate (source animal id): 55	–	32 (≈ 52.1 µM)
isolate (source animal id): 56	–	> 32
isolate (source animal id): 57	–	> 32
isolate (source animal id): 79	> 32	–
isolate (source animal id): 88	8 (≈ 13 µM)	–
isolate (source animal id): 91	8 (≈ 13 µM)	–
isolate (source animal id): 92	16 (≈ 26 µM)	–
isolate (source animal id): 100	–	> 32
isolate (source animal id): 103	–	> 32
isolate (source animal id): 107	–	> 32
isolate (source animal id): 108	–	> 32
isolate (source animal id): 111	16 (≈ 26 µM)	–
isolate (source animal id): 112	–	> 32
isolate (source animal id): 113	–	> 32
isolate (source animal id): 121	–	> 32
isolate (source animal id): 122	> 32	> 32
isolate (source animal id): 123	16 (≈ 26 µM)	> 32
isolate (source animal id): 126	–	> 32
isolate (source animal id): 133	32 (≈ 52.1 µM)	> 32
isolate (source animal id): 135	–	> 32
isolate (source animal id): 138	–	> 32
isolate (source animal id): 141	–	> 32
isolate (source animal id): 142	–	> 32
isolate (source animal id): 145	–	> 32
isolate (source animal id): 149	–	≤ 4
isolate (source animal id): 151	–	≤ 4
isolate (source animal id): 152	–	8 (≈ 13 µM)
isolate (source animal id): 154	–	8 (≈ 13 µM)
isolate (source animal id): 158	> 32	–
isolate (source animal id): 159	–	> 32
isolate (source animal id): 162	–	> 32
isolate (source animal id): 168	32 (≈ 52.1 µM)	–
isolate (source animal id): 169	16 (≈ 26 µM)	–
isolate (source animal id): 170	–	> 32
isolate (source animal id): 171	8 (≈ 13 µM)	≤ 4
isolate (source animal id): 172	–	> 32
isolate (source animal id): 173	–	> 32
isolate (source animal id): 175	> 32	–
isolate (source animal id): 177	32 (≈ 52.1 µM)	–
isolate (source animal id): 179	–	> 32
isolate (source animal id): 180	–	> 32
isolate (source animal id): 181	32 (≈ 52.1 µM)	–
isolate (source animal id): 182	32 (≈ 52.1 µM)	–
isolate (source animal id): 183	32 (≈ 52.1 µM)	> 32
isolate (source animal id): 186	–	> 32
isolate (source animal id): 187	16 (≈ 26 µM)	> 32
isolate (source animal id): 188	–	> 32
isolate (source animal id): 190	32 (≈ 52.1 µM)	8 (≈ 13 µM)
isolate (source animal id): 191	–	> 32
isolate (source animal id): 192	–	≤ 4
isolate (source animal id): 194	8 (≈ 13 µM)	–
isolate (source animal id): 195	32 (≈ 52.1 µM)	–
isolate (source animal id): 197	16 (≈ 26 µM)	–
isolate (source animal id): 201	–	> 32
isolate (source animal id): 202	–	> 32
isolate (source animal id): 209	–	> 32
isolate (source animal id): 211	> 32	8 (≈ 13 µM)
isolate (source animal id): 214	> 32	–
isolate (source animal id): 220	–	> 32
isolate (source animal id): 221	–	> 32
isolate (source animal id): 222	> 32	–
isolate (source animal id): 223	16 (≈ 26 µM)	> 32
isolate (source animal id): 228	> 32	–
isolate (source animal id): 230	> 32	–
isolate (source animal id): 233	–	> 32
isolate (source animal id): 235	> 32	–
isolate (source animal id): 236	8 (≈ 13 µM)	–
isolate (source animal id): 237	–	8 (≈ 13 µM)
isolate (source animal id): 239	≤ 4	–
isolate (source animal id): 241	> 32	> 32
isolate (source animal id): 244	8 (≈ 13 µM)	–
isolate (source animal id): 246	16 (≈ 26 µM)	–
isolate (source animal id): 247	> 32	–
isolate (source animal id): 250	16 (≈ 26 µM)	–
isolate (source animal id): 252	> 32	> 32
isolate (source animal id): 253	–	> 32
isolate (source animal id): 259	–	> 32
isolate (source animal id): 260	–	> 32
isolate (source animal id): 262	–	> 32
isolate (source animal id): 268	8 (≈ 13 µM)	–
isolate (source animal id): 282	16 (≈ 26 µM)	> 32
isolate (source animal id): 285	> 32	–
isolate (source animal id): 287	–	> 32
isolate (source animal id): 288	–	8 (≈ 13 µM)
isolate (source animal id): 289	16 (≈ 26 µM)	–
isolate (source animal id): 290	16 (≈ 26 µM)	–
isolate (source animal id): 291	–	8 (≈ 13 µM)
isolate (source animal id): 293	–	> 32
isolate (source animal id): 296	32 (≈ 52.1 µM)	–
isolate (source animal id): 298	16 (≈ 26 µM)	> 32
isolate (source animal id): 299	–	> 32
isolate (source animal id): 300	–	≤ 4
isolate (source animal id): 301	16 (≈ 26 µM)	–
isolate (source animal id): 302	–	> 32
isolate (source animal id): 304	–	> 32
isolate (source animal id): 306	–	≤ 4
isolate (source animal id): 308	–	8 (≈ 13 µM)
isolate (source animal id): 309	–	8 (≈ 13 µM)
isolate (source animal id): 310	> 32	–
isolate (source animal id): 313	–	> 32
isolate (source animal id): 318	–	> 32
isolate (source animal id): 320	16 (≈ 26 µM)	≤ 4
isolate (source animal id): 321	–	> 32
isolate (source animal id): 323	–	> 32
isolate (source animal id): 324	–	> 32
isolate (source animal id): 326	–	> 32
isolate (source animal id): 328	–	> 32
isolate (source animal id): 329	–	> 32
isolate (source animal id): 331	> 32	–
isolate (source animal id): 333	16 (≈ 26 µM)	> 32
isolate (source animal id): 335	–	> 32
isolate (source animal id): 338	–	> 32
isolate (source animal id): 341	> 32	–
